The values below come from patent US4587052A, “1H-pyrrolo-[2,1-C][1,4]benzodiazepine-2-acrylamide compounds having antitumor activity” (priority 1983, dated 1986).

A short description of one data set: in vivo. Particulars: mouse, ip. Here is the method:
A test compound was dissolved in dimethyl sulfoxide and the solution was diluted to 50-fold with a physiological saline solution. This original solution was serially diluted at a common ratio of 1.15. Each resulting solution was administered intraperitoneally to groups of 10 to 15 dd-strain male mice, each 18 to 20 g in body weight. […] The LD50 was calculated from the number of dead mice of each group according to the Probit method.

Data set [1] concerns mouse ascitic leukemia p388. Kind of data set: Antitumor activity test (mouse ascitic leukemia p388 i.p. in BDF1-strain male mice). The data set is classed as in vivo. Particulars: for Therapeutic index: Table 2, toxic dose/effective dose; for Prolongation of survival time, %: ip. How it is done:
10^6 Cells of mouse ascitic leukemia p388 were administered intraperitoneally into each member of the groups of 8 to 12 BDF1 -strain male mice, each 18 to 20 g in body weight. After 24 hr from the administration, a test compound was intraperitoneally administered to each member of the test group in a predetermined dose once a day for 4 consecutive days. Days elapsed until death of the test animal were counted for each mouse. To each member of the control group, a physiological saline solution was administered. The average survival period of the animal was represented by mean survival time. The prolongation of survival time, indicative of the effectiveness of a test compound, was calculated by the following equation. [formula] The therapeutic index was calculated by the following equation. [formula]

The conditions of data set [2]: already known; cited from earlier work.
For data set [3] the following is noted: already known; cited from earlier work. This is another data set of the same source.
Setting [4] is: Table 1, i.p., dd-strain male mice, 3 weeks, read-out: LD50.
The mark [5] stands for this setting: Table 2, i.p., dd-strain male mice, 3 weeks, read-out: LD50.

Structures are written as SMILES. Read-outs that look alike come from different tables or passages of the source.

For the compound `Cc1ccc2c(c1OCc1ccccc1C#N)NC(O)C1CC(/C=C/C(N)=O)=CN1C2=O` (stereo not drawn) [5,10,11,11a-tetrahydro-9-(2-cyanobenzyloxy)-11-hydroxy-8-methyl-5-oxo-1H-pyrrolo-[2,1-C][1,4]benzodiazepine-2-acrylamide], the LD50 at 504 h in the data set “in vivo” turned out to be 120 mg/kg. Besides, the Therapeutic index in data set [1] worked out at 73.3.
Take `CC(=O)SC(CC(=O)Oc1c(C)ccc2c1NC(O)C1CC(/C=C/C(N)=O)=CN1C2=O)C(=O)O` (stereo not drawn) [5,10,11,11a-tetrahydro-9-(3-carboxy-3-S-acetylmercaptopropanoyloxy)-11-hydroxy-8-methyl-5-oxo-1H-pyrrolo-[2,1-C][1,4]-benzodiazepine-2-acrylamide]: the 50% lethal dose (LD50) at 504 h in the data set “in vivo” (setting [4]) was found to be 138 mg/kg.
As to `Cc1ccc2c(c1OC(=O)CCC(=O)O)NC(O)C1CC(/C=C/C(N)=O)=CN1C2=O` (stereo not drawn) [COCH2 CH2COOK, 5,10,11,11a-tetrahydro-9-(3-carboxypropanoyloxy)-11-hydroxy-8-methyl-5-oxo-1H-pyrrolo[2,1-C][1,4]-benzodiazepine-2-acrylamide], the median lethal dose (LD50) at 504 h in the data set “in vivo” stood at 120 mg/kg. The “Prolongation of survival time, %” value in data set [1] (30 mg/kg) was found to be 160%.
`COC1Nc2c(ccc(C)c2OCCC(=O)O)C(=O)N2C=C(/C=C/C(N)=O)CC12` (stereo not drawn) [CH2 CH2 COOK, 5,10,11,11a-tetrahydro-9-(2-carboxyethoxy)-11-methoxy-8-methyl-5-oxo-1H-pyrrolo-[2,1-C][1,4]benzodiazepine-2-acrylamide] showed an LD50 at 504 h in the data set “in vivo” of 105 mg/kg. This compound also gave a Therapeutic index in data set [1] of 72.4. Moreover, the “Prolongation of survival time, %” value in data set [1] (10 mg/kg) came to 172%.
`CCC(CCCN)Oc1c(C)ccc2c1NC(OC)C1CC(/C=C/C(N)=O)=CN1C2=O` (stereo not drawn) [5,10, 11, 11a-tetrahydro-9-(4-amino-1-ethylpropoxy)-11-methoxy-8-methyl-5-oxo-1H-pyrrolo-[2,1-C][1,4]benzodiazepine-2-acrylamide]: the LD50 at 504 h in the data set “in vivo” (setting [5]) was determined as 115 mg/kg. Further, in data set [1], the Therapeutic index is 78.4.
In the case of `COC1Nc2c(ccc(C)c2OC(=O)c2ccccc2C(=O)O)C(=O)N2C=C(C=CC(N)=O)CC12` (stereo not drawn) [5,10,11,11a-tetrahydro-9-(2-carboxyphenylcarbonyloxy)-11-methoxy-8-methyl-5-oxo-1H-pyrrolo-[2,1-C][1,4]-benzodiazepine-2-acrylamide], the LD50 at 504 h in “in vivo” (setting [4]) was 86.9 mg/kg. Besides, the “Prolongation of survival time, %” value in data set [1] (30 mg/kg) was found to be 130.2%.
Compound `Cc1ccc2c(c1OCCCN)NC(O)C1CC(/C=C/C(N)=O)=CN1C2=O` (stereo not drawn) [(CH2)3 NH2, 5,10,11,11a-tetrahydro-9-(3-aminopropoxy)-11-hydroxy-8-methyl-5-oxo-1H-pyrrolo[2,1-C][1,4]benzodiazepine-2-acrylamide] displayed an LD50 at 504 h in “in vivo” of 103 mg/kg. The compound also showed a Therapeutic index in data set [1] of 93.5.
For the compound `Cc1ccc2c(c1OC(=O)CCCC(=O)O)NC(O)C1CC(/C=C/C(N)=O)=CN1C2=O` (stereo not drawn) [COCH2 CH2 CH2COOK, 5,10,11,11a-tetrahydro-9-(4-carboxybutanoyloxy)-11-hydroxy-8-methyl-5-oxo-1H-pyrrolo-[2,1-C][1,4]-benzodiazepine-2-acrylamide], in the data set “in vivo” (setting [4]), the 50% lethal dose (LD50) at 504 h turned out to be 151 mg/kg. In addition, the “Prolongation of survival time, %” value in data set [1] (30 mg/kg) is 185%.
Take `CCCCCCCCCC(CC(=O)Oc1c(C)ccc2c1NC(O)C1CC(C=CC(N)=O)=CN1C2=O)C(=O)O` (stereo not drawn) [Table 1 entry 4 (R^1 not printed), 5,10,11,11a-tetrahydro-9-(3-carboxydodecanoyloxy)-11-hydroxy-8-methyl-5-oxo-1H-pyrrolo-[2,1-C][1,4]-benzodiazepine-2-acrylamide]: in “in vivo” (setting [4]), the LD50 at 504 h amounted to 122 mg/kg.
Turning to `Cc1ccc2c(c1O)N=CC1CC(/C=C/C(N)=O)=CN1C2=O` (stereo not drawn) [P'B'A', 5,11,11a-trihydro-9-hydroxy-8-methyl-5-oxo-1H-pyrrolo[2,1-C][1,4]benzodiazepine-2-acylamide], in data set [2], the “antibacterial activity (in words)” value is recorded as “have an antibacterial activity”. Further, the “antitumor activity (in words)” value in data set [3] was “an antitumor activity”.
Consider `Cc1ccc2c(c1OC(=O)COCC(=O)O)NC(O)C1CC(/C=C/C(N)=O)=CN1C2=O` (stereo not drawn) [COCH2OCH2COOK, 5,10,11,11a-tetrahydro-9-(4-carboxy-3-oxabutanoyloxy)-11-hydroxy-8-methyl-5-oxo-1H-pyrrolo-[2,1-C][1,4]-benzodiazepine-2-acrylamide], for which the LD50 at 504 h in the data set “in vivo” (setting [4]) was 160 mg/kg. Besides, the “Prolongation of survival time, %” value in data set [1] (30 mg/kg) was determined as 181.2%.
With `Cc1ccc2c(c1OCCCC#N)NC(O)C1CC(/C=C/C(N)=O)=CN1C2=O` (stereo not drawn) [(CH2)3 CN, 5,10,11,11a-Tetrahydro-9-(3-cyanopropoxy)-11-hydroxy-8-methyl-5-oxo-1H-pyrrolo-[2,1-C][1,4]benzodiazepine-2-acrylamide], the LD50 at 504 h in the data set “in vivo” (setting [5]) turned out to be 110 mg/kg. For the same compound, the Therapeutic index in data set [1] was determined as 95.2. For the same compound, the “Prolongation of survival time, %” value in data set [1] (10 mg/kg) came to 188%.
Regarding `COC1Nc2c(ccc(C)c2OC(=O)c2cccc([N+](=O)[O-])c2C(=O)O)C(=O)N2C=C(C=CC(N)=O)CC12` (stereo not drawn) [5,10,11,11a-tetrahydro-9-(2-carboxy-3-nitrophenylcarbonyloxy)-11-methoxy-8-methyl-5-oxo-1H-pyrrolo-[2,1-C][1,4]-benzodiazepine-2-acrylamide], the LD50 at 504 h in “in vivo” (setting [4]) is 95 mg/kg. Also, the “Prolongation of survival time, %” value in data set [1] (30 mg/kg) is listed as 152%.
Taken in the same sequence, the figures for `Cc1ccc2c(c1OC(=O)CCCCC(=O)O)NC(O)C1CC(/C=C/C(N)=O)=CN1C2=O` (stereo not drawn) [COCH2 CH2 CH2 CH2COOK, 5,10,11,11a-tetrahydro-9-(5-carboxypentanoyloxy)-11-hydroxy-8-methyl-5-oxo-1H-pyrrolo-[2,1-C][1,4]-benzodiazepine-2-acrylamide] were 157 mg/kg and 172.5%.
Regarding `COC1Nc2c(ccc(C)c2OCCc2ccc(C(=O)O)cc2)C(=O)N2C=C(/C=C/C(N)=O)CC12` (stereo not drawn) [5,10,11,11a-tetrahydro-9-[2-(4-carboxyphenyl)-ethoxy]-11-methoxy-8-methyl-5-oxo-1H-pyrrolo-[2,1-C][1,4]benzodiazepine-2-acrylamide], the LD50 at 504 h in the data set “in vivo” (setting [5]) amounted to 128 mg/kg. The compound also showed a Therapeutic index in data set [1] of 82.3. Moreover, in data set [1] (10 mg/kg), the “Prolongation of survival time, %” value came out at 165%.
For the compound `Cc1ccc2c(c1OCCC#N)NC(O)C1CC(/C=C/C(N)=O)=CN1C2=O` (stereo not drawn) [(CH2)2 CN, 5,10,11,11a-tetrahydro-9-(2-cyanoethoxy)-11-hydroxy-8-methyl-5-oxo-1H-pyrrolo-[2,1-C][1,4]benzodiazepine-2-acrylamide], the 50% lethal dose (LD50) at 504 h in “in vivo” (setting [5]) is 118 mg/kg. Further, the Therapeutic index in data set [1] came to 103.8.
Compound `COC1Nc2c(ccc(C)c2OCC(=O)O)C(=O)N2C=C(/C=C/C(N)=O)CC12` (stereo not drawn) [CH2 COONa, 5,10,11,11a-tetrahydro-9-carboxymethoxy-11-methoxy-8-methyl-5-oxo-1H-pyrrolo-[2,1-C][1,4]benzodiazepine-2-acrylamide] had an LD50 at 504 h in “in vivo” of 102 mg/kg. In data set [1], this compound returned a Therapeutic index of 88.5.
`Cc1ccc2c(c1O)NC(O)C1CC(/C=C/C(N)=O)=CN1C2=O` (stereo not drawn) [PBA, 5,10,11,11a-tetrahydro-9,11-dihydroxy-8-methyl-5-oxo-1H-pyrrolo-[2,1-C][1,4]-benzodiazepine-2-acrylamide, reference compound] had an LD50 at 504 h in the data set “in vivo” of 0.73 mg/kg. In data set [1], this compound showed a Therapeutic index of 36.5. In data set [2], the “antibacterial activity (in words)” value is given as “have an antibacterial activity”. In addition, the “antitumor activity (in words)” value in data set [3] is “an antitumor activity”.

As a reminder, the LD50 is the dose expected to kill half of the subjects tested.
